The text below walks through data of PubChem BioAssay AID192 (DTP/NCI, 2004).

The subject of this experiment is BDF1 mice, B16 melanoma ip, median survival T/C. Kind of experiment: NCI In Vivo Anticancer Drug Screen. Data for tumor model B16 Melanoma (intraperitoneal) in B6D2F1 (BDF1) mice. The conditions noted are these: endpoint: median survival time, higher = longer survival. Put shortly: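 Read-out: survival or tumor size, given as treated/control ratio. Controls received vehicle only; animals bore transplantable tumors.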

[1] abbreviates: dose: 6.25 mg/kg/injection, schedule: Q01DX009 (ip), vehicle: saline with Tween-80.
The mark [2] stands for this setting: dose: 12.5 mg/kg/injection, schedule: Q01DX009 (ip), vehicle: saline with Tween-80.
Setting [3] is: dose: 25.0 mg/kg/injection, schedule: Q01DX009 (ip), vehicle: saline with Tween-80.
Setting [4] is: dose: 6.25 mg/kg/injection, schedule: Q01DX009 (ip), vehicle: Klucel (hydroxypropylcellulose) (HPC).
The mark [5] stands for this setting: dose: 12.5 mg/kg/injection, schedule: Q01DX009 (ip), vehicle: Klucel (hydroxypropylcellulose) (HPC).
Setting [6] is: dose: 25.0 mg/kg/injection, schedule: Q01DX009 (ip), vehicle: Klucel (hydroxypropylcellulose) (HPC).
[7] abbreviates: dose: 50.0 mg/kg/injection, schedule: Q01DX009 (ip), vehicle: Klucel (hydroxypropylcellulose) (HPC).
Where [8] appears, read: dose: 100.0 mg/kg/injection, schedule: Q01DX009 (ip), vehicle: Klucel (hydroxypropylcellulose) (HPC).
[9] abbreviates: dose: 200.0 mg/kg/injection, schedule: Q01DX009 (ip), vehicle: Klucel (hydroxypropylcellulose) (HPC).
[10] abbreviates: dose: 400.0 mg/kg/injection, schedule: Q01DX009 (ip), vehicle: Klucel (hydroxypropylcellulose) (HPC).
[11] abbreviates: dose: 12.5 mg/kg/injection, schedule: Q01DX009 (ip), vehicle: saline.
Where [12] appears, read: dose: 25.0 mg/kg/injection, schedule: Q01DX009 (ip), vehicle: saline.
Where [13] appears, read: dose: 50.0 mg/kg/injection, schedule: Q01DX009 (ip), vehicle: saline.
The mark [14] stands for this setting: dose: 200.0 mg/kg/injection, schedule: Q01DX009 (ip), vehicle: saline.
Where [15] appears, read: dose: 12.5 mg/kg/injection, schedule: Q01DX009 (ip), vehicle: dextrose.
Setting [16] is: dose: 6.25 mg/kg/injection, schedule: Q01DX009 (ip), vehicle: saline.
[17] abbreviates: dose: 3.12 mg/kg/injection, schedule: Q01DX009 (ip), vehicle: saline.

“And” between values parts separate entries of the source, which are not always exact repeats. Equal values may be shown once. Toxic doses and inconclusive results are not listed. Square brackets hold non-standard residues; d marks the D form. Peptide text beside a SMILES is read from it. * marks the point of attachment. ξ: configuration not given here. Boc = CC(C)(C)OC(=O)*; ξP = O=C(O)C1CCCN1

Consider `CC(=O)Oc1ccc(OC(C)=O)c2c1C(=O)C=CC2=O`, for which the T/C by setting is: (dose: 0.5 mg/kg/injection, schedule: Q01DX009 (ip), vehicle: Klucel (hydroxypropylcellulose) (HPC)) 86 % of control; (dose: 1.0 mg/kg/injection, schedule: Q01DX009 (ip), vehicle: Klucel (hydroxypropylcellulose) (HPC)) 88 % of control.
As to `NC(=S)Nc1cccc2ccccc12`, the T/C under setting [1] is 99 % of control, the T/C under setting [2] was 95 % of control and the T/C under setting [3] was 97 % of control.
As to `CNCc1ccccc1C(O)c1ccc(Cl)cc1` (stereo unspecified), the T/C under setting [4] was 102 % of control, the T/C under setting [5] is 100 % of control, the T/C under setting [6] was 97 % of control and the T/C under setting [7] was 102 % of control.
`CC1(C)[C@H]2CC[C@@]1(C)C(=O)[C@H]2[N+](=O)[O-]`: the T/C was 114 % of control under setting [8], 111 % of control under setting [9] and 108 % of control under setting [10].
On to `COC(=O)[C@@H]1c2cc3c(c(O)c2[C@@H](OC)C[C@@]1(C)O)C(=O)c1c(O)cc2c(c1C3=O)OC1O[C@@]2(C)[C@H](O)[C@@H](N(C)C)[C@@H]1O`, for which the T/C under setting [11] was 155 % of control and 158 % of control; the T/C under setting [12] is 165 % of control and 178 % of control; the T/C under setting [13] is 184 % of control and 186 % of control; the T/C under setting [14] is 153 % of control.
With `O=C(O)C1CC2C3CC(C(=O)O)C(C3)C2C1` (stereo unspecified), the T/C runs as follows: (dose: 100.0 mg/kg/injection, schedule: Q04DX003 (ip), vehicle: saline) 108 % of control; (dose: 200.0 mg/kg/injection, schedule: Q04DX003 (ip), vehicle: saline) 104 % of control; (dose: 400.0 mg/kg/injection, schedule: Q04DX003 (ip), vehicle: saline) 105 % of control.
As to `Cc1[nH]ccc2c(C)c3nc4ccc(O)cc4c3cc12`, the T/C (dose: 2.5 mg/kg/injection, schedule: Q04DX003 (ip), vehicle: water) is 123 % of control; the T/C (dose: 5.0 mg/kg/injection, schedule: Q04DX003 (ip), vehicle: water) was 121 % of control; the T/C (dose: 20.0 mg/kg/injection, schedule: Q04DX003 (ip), vehicle: water) was 153 % of control; the T/C (dose: 40.0 mg/kg/injection, schedule: Q04DX003 (ip), vehicle: water) was 113 % of control.
As to `C[N+](C)(C)c1cc2c(nn1)Nc1ccccc1S2`, the T/C is 101 % of control (dose: 3.12 mg/kg/injection, schedule: Q01DX009 (ip), vehicle: Klucel (hydroxypropylcellulose) (HPC)); 98 % of control under setting [4]; 101 % of control under setting [5]; 101 % of control under setting [6]; 102 % of control under setting [7]; 89 % of control under setting [8].
In the case of `CCC(C)C(NC(=O)c1ccccc1)C(=O)O` (stereo unspecified), the T/C is, setting by setting: under setting [1], 100 % of control; under setting [2], 101 % of control; under setting [3], 95 % of control; (dose: 50.0 mg/kg/injection, schedule: Q01DX009 (ip), vehicle: saline with Tween-80) 90 % of control and 94 % of control.
Take `FC(F)(F)S.[Hg]`: the T/C is 104 % of control (dose: 1.25 mg/kg/injection, schedule: Q01DX009 (ip), vehicle: saline); 100 % of control (dose: 2.5 mg/kg/injection, schedule: Q01DX009 (ip), vehicle: saline); 102 % of control (dose: 5.0 mg/kg/injection, schedule: Q01DX009 (ip), vehicle: saline).
For `O=C(O)CC(=O)O.[NH-]C1CCCCC1[NH-].[Pt+2]` (stereo unspecified), the T/C (dose: 10.0 mg/kg/injection, schedule: Q01DX009 (ip), vehicle: dextrose) is 150 % of control; the T/C under setting [15] is 196 % of control; the T/C (dose: 24.0 mg/kg/injection, schedule: Q01DX009 (ip), vehicle: other) was 150 % of control; the T/C (dose: 25.0 mg/kg/injection, schedule: Q01DX009 (ip), vehicle: dextrose) is 163 % of control.
For `CC(C)CNc1ccc(S(=O)(=O)c2ccc(NCC(C)C)c([N+](=O)[O-])c2)cc1[N+](=O)[O-]`, the T/C is, setting by setting: (dose: 3.13 mg/kg/injection, schedule: Q01DX009 (ip), vehicle: saline with Tween-80) 100 % of control; under setting [1], 93 % of control; under setting [16], 93 % of control; under setting [2], 89 % of control; under setting [12], 88 % of control.
`CC(=O)Oc1ccc(C)cc1`: the T/C under setting [7] was 103 % of control, the T/C under setting [8] is 112 % of control and the T/C under setting [9] is 103 % of control.
In the case of `O=C(OCCOCCN1CCCCC1)N1c2ccccc2Sc2cccnc21`, the T/C under setting [17] was 100 % of control, the T/C under setting [11] is 100 % of control and the T/C under setting [12] is 102 % of control.
In the case of `Cc1cc(C)c(OCC2CO2)c(C)c1` (stereo unspecified), the T/C under setting [8] is 103 % of control, the T/C under setting [9] is 96 % of control and the T/C under setting [10] was 90 % of control.
With `[Cl][Pt+2][Cl].[NH-]CC1(C[NH-])CCCC1`, the T/C is 124 % of control (dose: 0.5 mg/kg/injection, schedule: Q01DX009 (ip), vehicle: saline); 112 % of control (dose: 1.0 mg/kg/injection, schedule: Q01DX009 (ip), vehicle: saline); 157 % of control (dose: 2.0 mg/kg/injection, schedule: Q01DX009 (ip), vehicle: saline).
On to `COc1ccc2c(=O)cc(-c3ccccc3)[nH]c2c1`, for which the T/C is, setting by setting: under setting [11], 114 % of control; under setting [12], 117 % of control; under setting [13], 120 % of control.
Take `O=C(O)CC(=O)O.[NH-]CC[NH-].[Pt+2]`: the T/C is 119 % of control (dose: 3.12 mg/kg/injection, schedule: Q01DX009 (ip), vehicle: dextrose); 171 % of control under setting [15]; 197 % of control and 214 % of control under setting [6].
Turning to `C=C1C(=O)O[C@@H]2[C@H](O)[C@@H](C)[C@@H]3C=CC(=O)[C@@]3(C)[C@@H](OC(=O)/C(C)=C/C)[C@H]12`, the T/C reads like this: (dose: 1.5 mg/kg/injection, schedule: Q01DX009 (ip), vehicle: other) 101 % of control; (dose: 1.5 mg/kg/injection, schedule: Q01DX009 (ip), vehicle: saline + alcohol) 92 % of control; (dose: 3.0 mg/kg/injection, schedule: Q01DX009 (ip), vehicle: other) 98 % of control; (dose: 3.0 mg/kg/injection, schedule: Q01DX009 (ip), vehicle: saline + alcohol) 96 % of control; (dose: 6.0 mg/kg/injection, schedule: Q01DX009 (ip), vehicle: other) 99 % of control; (dose: 6.0 mg/kg/injection, schedule: Q01DX009 (ip), vehicle: saline + alcohol) 96 % of control.
Consider `CCCCCCCCCCCCCCCC[N+]1(C)CCN(SN2CC[N+](C)(CCCCCCCCCCCCCCCC)CC2)CC1`, for which the T/C by setting is: (dose: 1.56 mg/kg/injection, schedule: Q01DX009 (ip), vehicle: saline) 93 % of control; under setting [17], 89 % of control; under setting [16], 87 % of control and 89 % of control.
Turning to `COC(=O)C1CCCN1C(=O)CNC(=O)OC(C)(C)C` (stereo not drawn) (Boc-Gly-[ξP]-OMe), the T/C under setting [13] was 94 % of control; the T/C (dose: 100.0 mg/kg/injection, schedule: Q01DX009 (ip), vehicle: saline) is 103 % of control; the T/C under setting [14] was 91 % of control; the T/C (dose: 400.0 mg/kg/injection, schedule: Q01DX009 (ip), vehicle: saline) was 88 % of control.
